Experimental data published in paper PMC7067850, “Identification of highly potent and selective inhibitor, TIPTP, of the p22phox-Rubicon axis as a therapeutic agent for rheumatoid arthritis” (Scientific Reports, 2020).

Key:
[1] = Pharmacokinetic study in male ICR mice (IP and IV); type: in vivo, mouse
Procedure: TIPTP at a dose of 0.5 mg/kg and 1 mg/kg was administered intravenously and intraperitoneally to male ICR mice. Blood samples were collected via the carotid artery at 0 (to serve as a control), 0.03, 0.16, 0.25, 0.5, 1, 2, 4, 6, and 24 h after administration of the compound. After centrifugation at 3000 rpm for 10 min, a 13.5 µL aliquot of plasma samples were stored at -20 C until analysis. Pharmacokinetic parameters were determined by a noncompartmental analysis using WinNonlin® (Pharsight Corporation, Mountain View, CA) program. The total area under the plasma concentration-time curve from time zero to the last measured time (AUClast) was calculated by the trapezoidal rule[…] method. Standard methods in the literature (M. Gibaldi, D. Perrier, Pharmacokinetics, second ed., Marcel-Dekker, New York, 1982.) were used to calculate the following pharmacokinetic parameters; the time averaged total body clearance (CL), total area under the first moment of plasma concentration-time curve from time zero to time infinity (AUC0-∞), terminal half-life, mean residence time (MRT), apparent volume of distribution at steady state (Vss). Concentrations of the compound in the above samples were analyzed using LC-MS/MS. To a 13.5 µL aliquot of plasma sample, a 60 µL aliquot of acetonitrile containing 1 µg/mL of internal standard (carbamazepine) was added. After vortex mixing and centrifugation at 6,000 rpm for 15 min, a […] of supernatant was added to 100μL distilled water and injected into LCMS/MS system. The LC-MS/MS system consisted of Agilent 1200 series HPLC system (Agilent, Santa Clara, CA) and API3200® triple-quadrupole mass spectrometer (Applied Biosystems-SCIEX, Concord, Canada). The HPLC mobile phases consisted of 0.1% formic acid in water (A) and acetonitrile (B). Chromatographic separation was achieved on a reversed-phase Atlantis T3 column (100 x 2.1 mm, 3 µm, Waters Corporation, Milford, MA) using gradient elution at a flow rate of 0.25 mL/min. The lower limit of quantitation of the compound in mice plasma was 9.7 ng/mL. The values of coefficients of correlation (R) were more than 0.997.

[2] = system: synoviocytes from RA patients; assay: Synoviocytes from RA patients ex vivo (co-IP, confocal, ELISA, immunoblot); type: cell-based, human
From the text: Synovial tissue specimens were obtained from all female patients with RA (n = 16, 60.5 years ± 6.0) or OA (n = 10, 59.5 years ± 7.2) during open synovectomy or joint replacement surgery at Hanyang University Hospital. All patients gave informed consent, and the procedure was approved by the Ethics Committee of Hanyang University Hospital approved this study (2017-05-003). This study was approved by the bioethics committee of The Red Cross (Seoul, South Korea), which oversees studies using samples from human subjects, and all methods were performed in accordance with the relevant guidelines and regulations.
Immunoblot and immunoprecipitation assays were performed as described previously[18],[23]. For immunoprecipitation, cells were harvested and then lysed in NP-40 buffer supplemented with a complete protease inhibitor cocktail (Roche). After pre-clearing with protein A/G agarose beads (GE Healthcare Life Science) for 1 h at 4 °C, whole-cell lysates were used for immunoprecipitation with the indicated antibodies. Generally, 1–4 μg of commercial antibody was added to 1 ml of cell lysates and incubated at 4 °C for 8 to 12 h. After the addition of protein A/G agarose beads for 6 h, immunoprecipitants were extensively washed with lysis buffer and eluted with SDS loading buffer by boiling for 5 min.
Cell culture supernatants, mice sera and synovial fluid were analyzed for cytokine content using the BD OptEIA ELISA set (BD Pharmingen) for the detection of TNF-α, IL-6, IL-1β, and IL-18. All assays were performed as recommended by the manufacturer.
Figure 6 TIPTP is active for cells from healthy humans or patients with RA. (a and b) LPS-primed human monocytes were treated with TIPTP (0.01, 0.1, 1 μM) for 30 min, and then activated with ATP for the 30 min. (a) IP with αp22phox or αRubicon, followed by IB with αRubicon or αp22phox. Loading control was used for IB with αActin. (b) Culture supernatants were harvested and analyzed for cytokines by ELISA (left). […] (e) Culture supernatants were harvested and analyzed for cytokines by ELISA (left). […]

Plasma stability assay = type: in vitro ADME; details: 37 °C
Procedure: Human plasma in each culture tube, treated with test compound (10 μM), was incubated at 37 °C for 0, 30 and 120 min. At the determined period of time, internal standard solution of chlopropamide in acetonitrile was added into each culture tube and then tubes were vortexed for 5 min, and then centrifuged for 5 min (14,000 rpm, 4 °C). The supernatant was then injected into LC-MS/MS system to analyze the plasma stability of the tested compound.

[3] = IP, 1 mg/kg, male ICR mouse plasma
[4] = IV, 0.5 mg/kg, male ICR mouse plasma

Question: Which results are given for `C[C@@H](Oc1cccc(-n2cc3c(n2)CCCC3)c1)C(=O)Nc1nnc(C(F)(F)F)s1` [TIPTP, (R)-2-(3-(4,5,6,7-tetrahydro-2H-indazol-2-yl)phenoxy)-N-(5-(trifluoromethyl)-1,3,4-thiadiazol-2-yl)propanamide]?
Answer: AUC(0-inf) [1, 3]: 15100 ± 3410 ng·h/mL; Cmax [1, 3]: 5590 ± 1430 ng/mL; MRT inf [1, 3]: 3.42 ± 0.43 h; Tmax [1, 3]: 0.23 ± 0.04 h; half-life [1, 3]: 2.91 ± 0.14 h; AUC(0-t) ([1]; IP, 1 mg/kg, male ICR mouse plasma, n = 5, mean ± SD): 15100 ± 3410 ng·h/mL; AUC(0-inf) [1, 4]: 10000 ± 451 ng·h/mL; MRT inf [1, 4]: 2.57 ± 0.52 h; half-life [1, 4]: 3.67 ± 0.39 h; AUC(0-t) ([1]; IV, 0.5 mg/kg, male ICR mouse plasma, n = 3, mean ± SD): 9980 ± 446 ng·h/mL; clearance ([1]; plasma, IV, 0.5 mg/kg, male ICR mouse): 0.832 mL/min/kg; Vd ([1]; plasma, IV, 0.5 mg/kg, male ICR mouse, read-out: Vss): 0.128 ± 0.0246 L/kg; p22phox–Rubicon interaction ([2]; RA patient cells, WB and confocal (Fig. 6c,d)): efficiently inhibit; p22phox-NOX2, NOX4, or NOX5 interaction ([2]; RA patient synoviocytes (Supplemental Fig. 7)): not inhibit; caspase-1 activation, and IL-1β and IL-18 production ([2]; freshly isolated RA synoviocytes without NLRP3 agonists (Fig. 6e)): inhibited in a dose-dependent manner; Human plasma stability (% remaining after 30 min) (Plasma stability assay; 10 μM, 30 min, listed as TIPTP (2)): 97.4%; Human plasma stability (% remaining after 2 h) (Plasma stability assay; 10 μM, 2 h, listed as TIPTP (2)): 93.8%; remaining at 0.5 h, 10 μM (Plasma stability assay; human, plasma, 30 min, read-out: Human plasma stability (% remaining after 30 min)): 97%; remaining at 2 h, 10 μM (Plasma stability assay; human, plasma, 2 h, read-out: Human plasma stability (% remaining after 2 h)): 94%
